# Experimental data: US20240299314A1 (priority 2023, published 2024)
# Test: PTX release by dialysis bag diffusion technique (HPLC)
# Assay type: physicochemical
# Conditions: 1:9 DMSO:PBS solution
# Procedure: where mo (mg) is the initial amount of PTX used; mr (mg) is the residual amount of PTX in the loading solution; mNPs (g) is the […] used in the loading experiment. A dialysis bag diffusion technique was used for examining drug release behaviors. Briefly, PTX@NPs were dispersed in 1 mL of release solution (DMSO: PBS 1:9 v/v) and transferred to a dialysis bag (molecular weight cut off=14 kDa) and shaken in 5 mL of release solution at 37° C. At the predetermined time intervals, 200 μL of the solution was withdrawn and the same amount of fresh solution was added into the system. The released PTX content from PTX@NPs was determined by HPLC analysis. HPLC analyses were recorded on Agilent Technologies 1200 Series with ZORBAX SB-C18 column (Agilent, 5 μm, 4.6×250 mm). The mobile phase was water:acetonitrile (50:50 v/v). The separation was carried out at 30° C. The detection wavelength was 227 nm and a flow rate of 1.0 mL·min^−1 was employed. A sample volume of 20 μL was injected. Free PTX was used as a control to compare with PTX@NPs.
smiles,measurement,setting,value
"CC(=O)O[C@H]1C(=O)[C@@]2(C)[C@H]([C@H](OC(=O)c3ccccc3)[C@]3(O)C[C@H](OC(=O)[C@H](O)[C@@H](NC(=O)c4ccccc4)c4ccccc4)C(C)=C1C3(C)C)[C@]1(OC(C)=O)CO[C@@H]1C[C@@H]2O [free PTX, paclitaxel]",PTX released at the early stage of the release,"37° C., dialysis bag",~15%
same,release behavior,after the early stage,short-term release
